This is an account of results in US9556226B2, “Peptides with antifungal activity and methods of using the peptides” (THE BOARD OF TRUSTEES OF THE UNIVERSITY OF ARKANSAS, priority 2013, dated 2017).

A word on the MIC: it is the lowest concentration found to suppress growth. Low values mean inhibition by little substance, high ones a need for much substance.

In brackets after ≈: the same amount, converted by molar mass. Peptide text beside a SMILES is read from it.

In data set [1] the test system is Candida glabrata ATCC90030. As to the kind of experiment: Minimum inhibitory concentration (MIC) assay with resazurin. The format is cell-based. As to conditions: 0.125X RPMI medium, range of three independent experiments. An excerpt:
(§1) Minimum Inhibitory Concentration Assays: MIC assays were used to evaluate the minimum concentration of each antifungal peptide that would lead to 100% inhibition of growth. In the MIC assay, the colorimetric indicator, resazurin, is used to evaluate cell growth. Resazurin turns pink after reduction by living cells, indicating active cell growth. The unchanged blue color indicated no active cell growth. Colorimetric MIC end-points are interpreted as the lowest drug concentration that remained blue. The lowest dilution that changed from blue to slightly purple is indicative of significant cell growth inhibition; whereas a pink color indicates no growth inhibition. Each individual Candida species was assayed a minimum of three times and the results represent the range of MIC values obtained. The MIC assay was performed as described by the National Committee for Clinical Laboratory Standards M27-A, except we include resazurin as an indicator dye rather than visual inspection and the […] tissue culture medium was used at 0.125× concentration for our assays.
For orientation: Resazurin is reduced to fluorescent resorufin, in cell work by metabolically active cells.

The subject of data set [2] is Candida lucitaniae ATCC200951. The description is as above. The format is cell-based. The following applies: 0.125X RPMI medium, range of three independent experiments.
Excerpt: as §1

Data set [3] has as its system Candida tropicalis ATCC750. The description is as above. The format is cell-based. The following applies: 0.125X RPMI medium, range of three independent experiments.
Excerpt: as §1

A further data set concerns Candida kefyr ATCC4135. The description is as above. Format: cell-based. The following applies: 0.125X RPMI medium, range of three independent experiments.
Excerpt: as §1

For a further data set, the system named is Candida krusel ATCC6258. The description is as above. As to conditions: 0.125X RPMI medium, range of three independent experiments. Format: cell-based.
Excerpt: as §1

The subject of data set [4] is Candida albicans SC5314. Described as above. The format is cell-based. The following applies: 0.125X RPMI medium, range of three independent experiments.
Excerpt: as §1

The subject of data set [5] is Candida albicans SC5314. Format: cell-based. As to conditions: Candida albicans SC5314. As for the experimental part: Killing assays. The fungicidal activity of the peptides toward Candida albicans was examined by microdilution plate assay as described previously (13). Briefly, from a fresh overnight cultured plate, a single colony was inoculated and diluted in 1 ml of 10 mM sodium phosphate buffer at pH 7.4. Once cell counts had been confirmed by using a hemocytometer, the cells diluted within the same buffer at 1.8×10^5 cells/mil. Cell suspensions of 20 μl were mixed with 20 μl of peptide, which were dissolved in 10 mM sodium phosphate buffer at pH 7.4, and then incubated for 2 hours at 37° C. with shaking at speeds of 550 rpm. The reactions were stopped by the addition of 360 μl yeast nitrogen base (YNB) and then 40 μl of cell suspension was spread onto plates and incubated for 24 hours at 37° C. Sabouraud dextrose agar plates were used for C. albicans killing assay. The number of colony-forming units (CFUs) was counted and each assay was repeated in triplicate. Loss of viability was calculated as [1-(colonies from suspension with peptide/colonies from suspension with no peptide)]×100. For the respiratory activity experiments, Candida albicans was grown in the presence of sodium azide or antimycin A (Sigma Aldrich) before the killing assay was performed.

Data set [6] is described as follows: protein binding evaluation using bovine calf serum (disulfide bond stability). Format: in vitro ADME. From the text:
To alleviate that difficulty, two additional peptides were synthesized, KM23 and KM29. The KM23 peptide was identical in sequence to KM12 except the cysteine residues were removed resulting in a peptide with the sequence Y -K-R-K-F-F-K-R-K-Y (SEQ ID NO: 3). Since there were two phenylalanines at the center of this symmetrical peptide another peptide, designated KM29 was synthesized to yield the symmetric peptide Y-K-R-K-F-K-R-K-Y (SEQ ID NO: 4) with one phenylalanine at the center.

For data set [7], the system named is CD1 mice. As to the kind of experiment: Immunogenicity in mice, serum dot blot for antibodies against the peptide. Format: in vivo. Here is the method:
Small peptides have the potential to induce an immune response when used for therapeutic purposes. To examine this possibility, mice were injected once per month for four months with 10 mg/kg of the KM12 peptide either by intravenous, intramuscular, or intraperitoneal route. After the fifth month, the mice were euthanized and the serum collected and tested by dot blot analysis for antibodies directed against the KM12 peptide. For each route of injection, five CD1 mice were used. […] It is plausible that the smaller size of those peptides may not elicit an immune response, yet be effect as antifungals. Such studies are currently underway on KM23 and KM29.
(§2) Animal Studies: For the animal studies, CD-1 mice of 8-25 grams were injected with the antifungal peptides dissolved in either phosphate-buffered saline or 5% glucose. Peptide concentrations used for the injection of mice were chosen using a standard up-down protocol starting at 8 mg/kg. Peptides were injected into mice intravenously, intramuscularly, or intraperitoneally as indicated. The mice were closely monitored lbr signs of distress after injection. After two hours of continuous monitoring, the mice were evaluated daily for two weeks and necropsies performed after two weeks. For evaluating the immunogenicity of the peptides, mice were injected with peptides at a concentration of 10 mg/kg in 5% glucose. The routes of injection were intravenous, intramuscular, or intraperitoneal. Five mice were injected with the peptide per route of injection. The mice were injected with the same dose of peptide once per month for four months. The mice were monitored for signs of distress after each injection. At the end of the fifth month, the mice were euthanized by an overdose of anesthesia and the serum was collected from each mouse individually as assay for activity against the peptide using dot blots.

In data set [8] the test system is CD1 mice. As to the kind of experiment: Acute toxicity testing in CD1 mice (up-down protocol). The format is in vivo. The following applies: for signs observed on tested animals: IV. Here is the method:
To evaluate acute toxicity in animals, CD1 outbred mice were injected via tail vein with either KM12 or KM14 using a standard up-down concentration protocol and observed for any symptoms consistent with the toxicity of the peptides (Table 4). Mice were initially injected with KM12 or KM14 at a concentration of 8 mg/kg. […] Thus the KM12 peptide was deemed safe for animals at concentrations up to 10 mg/kg and the use of 5% glucose versus phosphate-buffered saline was deemed safer for administration to the animals. We will continue to evaluate acute toxicity with other KM peptides (i.e. KM23 and KM29) that show excellent promise as antifungal compounds. In addition, we plan to evaluate these peptides for treatment of superficial mucosal infections with Candida species.
as §2

On to `CC(=O)N[C@@H](Cc1ccc(O)cc1)C(=O)N[C@@H](CCCCN)C(=O)N[C@@H](CCCNC(=N)N)C(=O)N[C@@H](CCCCN)C(=O)N[C@@H](Cc1ccccc1)C(=O)N[C@@H](Cc1ccccc1)C(=O)N[C@@H](CCCCN)C(=O)N[C@@H](CCCNC(=N)N)C(=O)N[C@@H](CCCCN)C(=O)N[C@@H](Cc1ccc(O)cc1)C(N)=O` [KM23, Y-K-R-K-F-F-K-R-K-Y] (Ac-YKRKFFKRKY-NH2), for which the MIC in data set [1] is 75.4 µg/mL (≈ 50.1 µM); in data set [2] it was 2.4 µg/mL (≈ 1.59 µM); in data set [3] it was 2.4 to 4.7 µg/mL; with Candida kefyr ATCC4135 it was 1.2 to 4.7 µg/mL; with Candida krusel ATCC6258, 4.7 µg/mL (≈ 3.12 µM); in the data set with Candida albicans SC5314 [4], 4.7 µg/mL (≈ 3.12 µM). In the data set on Candida albicans SC5314 [5], the “LD50 in killing assays” value is recorded as 62.5 nM.

Turning to `CC(=O)N[C@@H](CSSC[C@H](NC(C)=O)C(=O)N[C@@H](Cc1ccccc1)C(=O)N[C@@H](CCCCN)C(=O)N[C@@H](CCCNC(=N)N)C(=O)N[C@@H](CCCCN)C(=O)N[C@@H](Cc1ccc(O)cc1)C(N)=O)C(=O)N[C@@H](Cc1ccccc1)C(=O)N[C@@H](CCCCN)C(=O)N[C@@H](CCCNC(=N)N)C(=O)N[C@@H](CCCCN)C(=O)N[C@@H](Cc1ccc(O)cc1)C(N)=O` [KM12, Y-K-R-K-F-C-----C-F-K-R-K-Y], the “stability of the disulfide bond in bovine calf serum” value in data set [6] was “readily reduced”. In addition, the “mice displaying a weak immune response (antibodies against the peptide)” value in the data set on CD1 mice [7] (10 mg/kg once per month for four months, intramuscular injection) is given as 1/5. Further, the “mice displaying an immune response (antibodies against the peptide)” value in the data set with CD1 mice [7] (10 mg/kg once per month for four months, intraperitoneal injection) was 0/5. Besides, in the data set on CD1 mice [7] (10 mg/kg once per month for four months, intravenous injection), the “mice showing a moderate immune response (antibodies against the peptide)” value is 1/5. Also, the “immunogenicity (overall, in words)” value with CD1 mice [7] (CD1 mice, 10 mg/kg monthly, IV, IM or IP) is “weakly immunogenic”. Besides, the “signs observed on tested animals” value with CD1 mice [8] (8 mg/kg, in PBS, CD1 mice) is “no toxicity and None”; in the data set with CD1 mice [8] (10 mg/kg, IM, IP, in 5% glucose, CD1 mice (n = 15)), “no major toxicity and None”; in the data set with CD1 mice [8] (10 mg/kg, in PBS, CD1 mice (n = 5)), “None”; in the data set with CD1 mice [8] (16 mg/kg, in 5% glucose, CD1 mice (n = 2)), “Convulsion, no death”. The “dosage deemed safe / well-tolerated in mice” value with CD1 mice [8] (intravenous, intramuscular or intraperitoneal route) is listed as “up to 10 mg/kg”.

For `CC(=O)N[C@@H](Cc1ccc(O)cc1)C(=O)N[C@@H](CCCCN)C(=O)N[C@@H](CCCNC(=N)N)C(=O)N[C@@H](CCCCN)C(=O)N[C@@H](Cc1ccccc1)C(=O)N[C@@H](CCCCN)C(=O)N[C@@H](CCCNC(=N)N)C(=O)N[C@@H](CCCCN)C(=O)N[C@@H](Cc1ccc(O)cc1)C(N)=O` [KM29, Y-K-R-K-F-K-R-K-Y] (Ac-YKRKFKRKY-NH2), the MIC in data set [1] is 67.5 µg/mL (≈ 49.7 µM); in [2] it was 2.1 to 4.2 µg/mL; in [3] it was 2.1 to 4.2 µg/mL; against Candida kefyr ATCC4135, 2.1 to 4.3 µg/mL; in the data set with Candida krusel ATCC6258 it was 4.2 µg/mL (≈ 3.09 µM); against Candida albicans SC5314 [4], 4.2 to 8.4 µg/mL. Besides, in the data set on Candida albicans SC5314 [5], the “LD50 in killing assays” value is on record as 62.5 nM.

On to `CC(=O)N[C@@H](CSSC[C@H](NC(C)=O)C(=O)N[C@@H](Cc1c[nH]c2ccccc12)C(=O)N[C@@H](CCCCN)C(=O)N[C@@H](CCCNC(=N)N)C(=O)N[C@@H](CCCCN)C(=O)N[C@@H](Cc1c[nH]c2ccccc12)C(N)=O)C(=O)N[C@@H](Cc1c[nH]c2ccccc12)C(=O)N[C@@H](CCCCN)C(=O)N[C@@H](CCCNC(=N)N)C(=O)N[C@@H](CCCCN)C(=O)N[C@@H](Cc1c[nH]c2ccccc12)C(N)=O` [KM14, W-K-R-K-W-C-----C-W-K-R-K-W], for which, in the data set with CD1 mice [8] (8 mg/kg, in PBS, CD1 mice), the “signs observed on tested animals” value is “immediate death”.
